Measured values reported in publication PMC10905675, “INX-315, a Selective CDK2 Inhibitor, Induces Cell Cycle Arrest and Senescence in Solid Tumors” (Cancer Discovery, 2023).

Experiments:
Experiment in all cases: SelectScreen ZLYTE
Format in all cases: biochemical
Conditions in all cases: INX-0315 at 100nM
AXL = molecular target: T1, AXL (Homo sapiens, UniProt P30530)
T1 construct: purchased Thermo Fisher Scientific SelectScreen (plus Nanosyn / Reaction Biology for CDK/cyclin lines)
Excerpt: (§1) INX-315 was first evaluated in the SelectScreen Biochemical Kinase Profiling at Thermo Fisher Scientific (Madison, WI). The primary screen consisted of INX-315 dosed at a single concentration of 100 nmol/L in 1% DMSO across each platform within the SelectScreen array of assays, LanthaScreen Eu Kinase Binding Assay; AdaptaScreen; and Z'LyteScreen using preestablished conditions at Thermo Fisher Scientific as shown in Supplementary Table S2. […] The follow-up screen consisted of 10-point dose–response curves for INX-315 from 1 µmol/L to 0.0495 nmol/L.

PAK7 (KIAA1264) = molecular target: T2, PAK7 (KIAA1264) (Homo sapiens, UniProt Q9P286)
T2 construct: purchased Thermo Fisher Scientific SelectScreen (plus Nanosyn / Reaction Biology for CDK/cyclin lines)
Excerpt: as §1

PAK4 = molecular target: T3, PAK4 (Homo sapiens, UniProt O96013)
T3 construct: purchased Thermo Fisher Scientific SelectScreen (plus Nanosyn / Reaction Biology for CDK/cyclin lines)
Excerpt: as §1

AURKC (Aurora C) = molecular target: T4, AURKC (Aurora C) (Homo sapiens, UniProt Q9UQB9)
T4 construct: purchased Thermo Fisher Scientific SelectScreen (plus Nanosyn / Reaction Biology for CDK/cyclin lines)
Excerpt: as §1

JAK2 = molecular target: T5, JAK2 (Homo sapiens, UniProt O60674)
T5 construct: purchased Thermo Fisher Scientific SelectScreen (plus Nanosyn / Reaction Biology for CDK/cyclin lines)
Excerpt: as §1

CSNK1G2 (CK1 gamma 2) = molecular target: T6, CSNK1G2 (CK1 gamma 2) (Homo sapiens, UniProt P78368)
T6 construct: purchased Thermo Fisher Scientific SelectScreen (plus Nanosyn / Reaction Biology for CDK/cyclin lines)
Excerpt: as §1

BRAF V599E = molecular target: T7, BRAF V599E (Homo sapiens, UniProt P15056, V600E)
T7 construct: purchased Thermo Fisher Scientific SelectScreen (plus Nanosyn / Reaction Biology for CDK/cyclin lines)
Excerpt: as §1

MINK1 = molecular target: T8, MINK1 (Homo sapiens, UniProt Q8N4C8)
T8 construct: purchased Thermo Fisher Scientific SelectScreen (plus Nanosyn / Reaction Biology for CDK/cyclin lines)
Excerpt: as §1

EGFR (ErbB1) T790M = molecular target: T9, EGFR (ErbB1) T790M (Homo sapiens, UniProt P00533, T790M)
T9 construct: purchased Thermo Fisher Scientific SelectScreen (plus Nanosyn / Reaction Biology for CDK/cyclin lines)
Excerpt: as §1

FRAP1 (mTOR) = molecular target: T10, FRAP1 (mTOR) (Homo sapiens, UniProt P42345)
T10 construct: purchased Thermo Fisher Scientific SelectScreen (plus Nanosyn / Reaction Biology for CDK/cyclin lines)
Excerpt: as §1

YES1 = molecular target: T11, YES1 (Homo sapiens, UniProt P07947)
T11 construct: purchased Thermo Fisher Scientific SelectScreen (plus Nanosyn / Reaction Biology for CDK/cyclin lines)
T11 sequence (P07947 whole entry): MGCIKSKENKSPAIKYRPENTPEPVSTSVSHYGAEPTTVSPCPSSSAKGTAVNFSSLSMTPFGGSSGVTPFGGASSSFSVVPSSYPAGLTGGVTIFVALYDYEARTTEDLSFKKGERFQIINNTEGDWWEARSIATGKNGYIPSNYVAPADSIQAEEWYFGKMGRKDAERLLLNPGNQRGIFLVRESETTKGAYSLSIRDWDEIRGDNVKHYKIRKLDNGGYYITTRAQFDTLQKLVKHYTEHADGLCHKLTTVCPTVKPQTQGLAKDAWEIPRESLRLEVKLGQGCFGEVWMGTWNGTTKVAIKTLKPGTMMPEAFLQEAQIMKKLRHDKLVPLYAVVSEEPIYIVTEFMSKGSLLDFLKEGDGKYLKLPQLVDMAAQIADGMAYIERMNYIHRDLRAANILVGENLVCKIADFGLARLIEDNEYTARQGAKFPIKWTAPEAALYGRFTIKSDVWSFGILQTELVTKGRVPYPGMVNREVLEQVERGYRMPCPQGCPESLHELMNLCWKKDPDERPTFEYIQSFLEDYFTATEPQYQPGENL
Excerpt: as §1

CLK3 = molecular target: T12, CLK3 (Homo sapiens, UniProt P49761)
T12 construct: purchased Thermo Fisher Scientific SelectScreen (plus Nanosyn / Reaction Biology for CDK/cyclin lines)
T12 sequence (P49761 whole entry): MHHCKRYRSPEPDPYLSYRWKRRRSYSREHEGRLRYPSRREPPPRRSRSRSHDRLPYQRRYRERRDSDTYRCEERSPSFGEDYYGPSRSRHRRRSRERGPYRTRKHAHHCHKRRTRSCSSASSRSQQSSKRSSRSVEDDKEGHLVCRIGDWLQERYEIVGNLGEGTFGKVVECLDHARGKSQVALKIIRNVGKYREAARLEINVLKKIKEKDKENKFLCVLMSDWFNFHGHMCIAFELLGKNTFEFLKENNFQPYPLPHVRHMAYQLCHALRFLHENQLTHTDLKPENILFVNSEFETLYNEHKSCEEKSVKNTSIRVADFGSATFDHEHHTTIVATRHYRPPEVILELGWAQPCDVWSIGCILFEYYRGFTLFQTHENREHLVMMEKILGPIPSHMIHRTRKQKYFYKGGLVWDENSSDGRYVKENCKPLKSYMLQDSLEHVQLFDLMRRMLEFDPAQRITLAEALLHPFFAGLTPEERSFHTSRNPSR
Excerpt: as §1

EGFR (ErbB1) = molecular target: T13, EGFR (ErbB1) (Homo sapiens, UniProt P00533)
T13 construct: purchased Thermo Fisher Scientific SelectScreen (plus Nanosyn / Reaction Biology for CDK/cyclin lines)
Excerpt: as §1

FGFR3 = molecular target: T14, FGFR3 (Homo sapiens, UniProt P22607)
T14 construct: purchased Thermo Fisher Scientific SelectScreen (plus Nanosyn / Reaction Biology for CDK/cyclin lines)
T14 sequence (P22607 23-806): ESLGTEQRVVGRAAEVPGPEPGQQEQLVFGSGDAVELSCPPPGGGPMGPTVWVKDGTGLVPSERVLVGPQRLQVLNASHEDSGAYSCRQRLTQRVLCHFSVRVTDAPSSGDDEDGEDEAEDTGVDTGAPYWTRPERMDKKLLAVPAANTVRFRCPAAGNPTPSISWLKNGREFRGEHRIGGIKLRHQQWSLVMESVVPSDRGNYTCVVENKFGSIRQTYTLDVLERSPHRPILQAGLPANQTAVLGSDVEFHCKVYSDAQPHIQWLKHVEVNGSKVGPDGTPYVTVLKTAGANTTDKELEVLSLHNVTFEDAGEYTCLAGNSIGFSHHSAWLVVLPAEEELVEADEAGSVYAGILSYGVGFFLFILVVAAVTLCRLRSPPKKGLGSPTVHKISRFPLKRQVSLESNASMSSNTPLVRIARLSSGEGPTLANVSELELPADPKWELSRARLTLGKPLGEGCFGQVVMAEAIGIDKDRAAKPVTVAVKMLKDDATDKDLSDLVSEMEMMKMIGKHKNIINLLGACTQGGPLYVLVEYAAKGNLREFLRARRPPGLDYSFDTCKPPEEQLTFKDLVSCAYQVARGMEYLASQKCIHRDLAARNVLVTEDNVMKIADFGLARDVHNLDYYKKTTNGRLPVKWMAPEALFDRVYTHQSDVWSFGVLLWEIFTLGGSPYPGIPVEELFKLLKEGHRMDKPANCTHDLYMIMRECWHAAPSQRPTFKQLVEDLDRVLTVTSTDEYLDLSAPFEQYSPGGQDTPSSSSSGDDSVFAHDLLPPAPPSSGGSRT
Excerpt: as §1

FGFR2 N549H = molecular target: T15, FGFR2 N549H (Homo sapiens, UniProt P21802, N549H)
T15 construct: purchased Thermo Fisher Scientific SelectScreen (plus Nanosyn / Reaction Biology for CDK/cyclin lines)
Excerpt: as §1

SRPK1 = molecular target: T16, SRPK1 (Homo sapiens, UniProt Q96SB4)
T16 construct: purchased Thermo Fisher Scientific SelectScreen (plus Nanosyn / Reaction Biology for CDK/cyclin lines)
Excerpt: as §1

FLT4 (VEGFR3) = molecular target: T17, FLT4 (VEGFR3) (Homo sapiens, UniProt P35916)
T17 construct: purchased Thermo Fisher Scientific SelectScreen (plus Nanosyn / Reaction Biology for CDK/cyclin lines)
Excerpt: as §1

EPHA1 = molecular target: T18, EPHA1 (Homo sapiens, UniProt P21709)
T18 construct: purchased Thermo Fisher Scientific SelectScreen (plus Nanosyn / Reaction Biology for CDK/cyclin lines)
Excerpt: as §1

EPHA4 = molecular target: T19, EPHA4 (Homo sapiens, UniProt P54764)
T19 construct: purchased Thermo Fisher Scientific SelectScreen (plus Nanosyn / Reaction Biology for CDK/cyclin lines)
Excerpt: as §1

BRAF = molecular target: T20, BRAF (Homo sapiens, UniProt P15056)
T20 construct: purchased Thermo Fisher Scientific SelectScreen (plus Nanosyn / Reaction Biology for CDK/cyclin lines)
Excerpt: as §1

ROCK2 = molecular target: T21, ROCK2 (Homo sapiens, UniProt O75116)
T21 construct: purchased Thermo Fisher Scientific SelectScreen (plus Nanosyn / Reaction Biology for CDK/cyclin lines)
Excerpt: as §1

TEK (Tie2) = molecular target: T22, TEK (Tie2) (Homo sapiens, UniProt Q02763)
T22 construct: purchased Thermo Fisher Scientific SelectScreen (plus Nanosyn / Reaction Biology for CDK/cyclin lines)
Excerpt: as §1

INSRR (IRR) = molecular target: T23, INSRR (IRR) (Homo sapiens, UniProt P14616)
T23 construct: purchased Thermo Fisher Scientific SelectScreen (plus Nanosyn / Reaction Biology for CDK/cyclin lines)
Excerpt: as §1

EGFR (ErbB1) T790M L858R = molecular target: T24, EGFR (ErbB1) T790M L858R (Homo sapiens, UniProt P00533, L858R/T790M)
T24 construct: purchased Thermo Fisher Scientific SelectScreen (plus Nanosyn / Reaction Biology for CDK/cyclin lines)
Excerpt: as §1

PRKCQ (PKC theta) = molecular target: T25, PRKCQ (PKC theta) (Homo sapiens, UniProt Q04759)
T25 construct: purchased Thermo Fisher Scientific SelectScreen (plus Nanosyn / Reaction Biology for CDK/cyclin lines)
Excerpt: as §1

DAPK3 (ZIPK) = molecular target: T26, DAPK3 (ZIPK) (Homo sapiens, UniProt O43293)
T26 construct: purchased Thermo Fisher Scientific SelectScreen (plus Nanosyn / Reaction Biology for CDK/cyclin lines)
T26 sequence (O43293 whole entry): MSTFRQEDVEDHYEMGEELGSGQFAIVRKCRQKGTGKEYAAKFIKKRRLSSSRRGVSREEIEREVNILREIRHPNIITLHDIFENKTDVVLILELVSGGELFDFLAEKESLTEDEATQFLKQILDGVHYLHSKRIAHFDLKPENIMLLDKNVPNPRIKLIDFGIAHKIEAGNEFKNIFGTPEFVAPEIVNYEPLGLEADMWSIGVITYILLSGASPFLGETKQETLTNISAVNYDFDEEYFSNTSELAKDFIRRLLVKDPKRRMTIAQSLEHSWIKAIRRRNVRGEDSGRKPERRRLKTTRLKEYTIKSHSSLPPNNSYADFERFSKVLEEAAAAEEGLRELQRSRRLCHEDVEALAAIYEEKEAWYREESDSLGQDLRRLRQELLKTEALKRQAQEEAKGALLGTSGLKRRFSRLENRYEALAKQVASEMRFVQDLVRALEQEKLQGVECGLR
Excerpt: as §1

RPS6KB2 (p70S6Kb) = molecular target: T27, RPS6KB2 (p70S6Kb) (Homo sapiens, UniProt Q9UBS0)
T27 construct: purchased Thermo Fisher Scientific SelectScreen (plus Nanosyn / Reaction Biology for CDK/cyclin lines)
Excerpt: as §1

PDGFRA (PDGFR alpha) = molecular target: T28, PDGFRA (PDGFR alpha) (Homo sapiens, UniProt P16234)
T28 construct: purchased Thermo Fisher Scientific SelectScreen (plus Nanosyn / Reaction Biology for CDK/cyclin lines)
T28 sequence (P16234 24-1089): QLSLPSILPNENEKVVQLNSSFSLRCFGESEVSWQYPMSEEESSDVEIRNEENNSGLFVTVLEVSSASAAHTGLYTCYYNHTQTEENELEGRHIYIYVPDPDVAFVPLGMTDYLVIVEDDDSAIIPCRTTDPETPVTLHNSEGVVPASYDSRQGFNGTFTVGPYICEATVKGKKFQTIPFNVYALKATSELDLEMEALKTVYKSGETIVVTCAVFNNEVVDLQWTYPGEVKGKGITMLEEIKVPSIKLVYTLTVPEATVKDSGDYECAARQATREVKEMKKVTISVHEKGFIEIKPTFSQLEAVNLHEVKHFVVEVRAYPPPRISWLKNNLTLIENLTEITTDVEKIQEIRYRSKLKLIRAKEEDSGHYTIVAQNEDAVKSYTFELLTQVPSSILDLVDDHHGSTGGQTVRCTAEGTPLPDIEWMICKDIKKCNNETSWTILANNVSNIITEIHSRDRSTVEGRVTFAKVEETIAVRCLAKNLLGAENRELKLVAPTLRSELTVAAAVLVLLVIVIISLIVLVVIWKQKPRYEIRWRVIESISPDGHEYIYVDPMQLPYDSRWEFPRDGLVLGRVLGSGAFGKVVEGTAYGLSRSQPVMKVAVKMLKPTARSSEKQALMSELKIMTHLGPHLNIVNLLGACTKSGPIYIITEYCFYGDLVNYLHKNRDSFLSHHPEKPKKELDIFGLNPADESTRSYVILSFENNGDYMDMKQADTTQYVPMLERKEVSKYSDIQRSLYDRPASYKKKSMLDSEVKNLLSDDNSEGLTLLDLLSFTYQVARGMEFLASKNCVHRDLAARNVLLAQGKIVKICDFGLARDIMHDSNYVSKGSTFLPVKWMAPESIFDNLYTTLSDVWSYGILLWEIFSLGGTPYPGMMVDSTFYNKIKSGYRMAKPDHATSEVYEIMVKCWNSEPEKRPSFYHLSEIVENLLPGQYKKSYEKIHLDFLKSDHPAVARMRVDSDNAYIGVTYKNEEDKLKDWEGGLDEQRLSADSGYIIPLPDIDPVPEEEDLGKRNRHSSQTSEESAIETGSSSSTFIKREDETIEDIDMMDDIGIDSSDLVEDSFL
Excerpt: as §1

AKT2 (PKB beta) = molecular target: T29, AKT2 (PKB beta) (Homo sapiens, UniProt P31751)
T29 construct: purchased Thermo Fisher Scientific SelectScreen (plus Nanosyn / Reaction Biology for CDK/cyclin lines)
T29 sequence (P31751 whole entry): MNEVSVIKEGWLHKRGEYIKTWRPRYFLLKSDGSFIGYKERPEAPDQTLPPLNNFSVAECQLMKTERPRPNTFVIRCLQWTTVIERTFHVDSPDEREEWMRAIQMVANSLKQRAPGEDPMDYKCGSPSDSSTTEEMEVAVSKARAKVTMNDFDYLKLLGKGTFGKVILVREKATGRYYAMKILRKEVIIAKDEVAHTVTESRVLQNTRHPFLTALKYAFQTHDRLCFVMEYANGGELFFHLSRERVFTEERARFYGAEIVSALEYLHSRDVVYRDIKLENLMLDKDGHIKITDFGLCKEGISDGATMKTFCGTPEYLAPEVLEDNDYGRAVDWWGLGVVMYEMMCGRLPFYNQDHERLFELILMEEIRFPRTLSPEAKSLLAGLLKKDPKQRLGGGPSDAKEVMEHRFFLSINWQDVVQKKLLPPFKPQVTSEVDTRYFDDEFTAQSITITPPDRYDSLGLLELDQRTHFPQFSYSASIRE
Excerpt: as §1

NTRK3 (TRKC) = molecular target: T30, NTRK3 (TRKC) (Homo sapiens, UniProt Q16288)
T30 construct: purchased Thermo Fisher Scientific SelectScreen (plus Nanosyn / Reaction Biology for CDK/cyclin lines)
Excerpt: as §1

GSK3B (GSK3 beta) = molecular target: T31, GSK3B (GSK3 beta) (Homo sapiens, UniProt P49841)
T31 construct: purchased Thermo Fisher Scientific SelectScreen (plus Nanosyn / Reaction Biology for CDK/cyclin lines)
Excerpt: as §1

EGFR (ErbB1) G719C = molecular target: T32, EGFR (ErbB1) G719C (Homo sapiens, UniProt P00533, G719C)
T32 construct: purchased Thermo Fisher Scientific SelectScreen (plus Nanosyn / Reaction Biology for CDK/cyclin lines)
Excerpt: as §1

RPS6KA2 (RSK3) = molecular target: T33, RPS6KA2 (RSK3) (Homo sapiens, UniProt Q15349)
T33 construct: purchased Thermo Fisher Scientific SelectScreen (plus Nanosyn / Reaction Biology for CDK/cyclin lines)
Excerpt: as §1

CHEK2 (CHK2) = molecular target: T34, CHEK2 (CHK2) (Homo sapiens, UniProt O96017)
T34 construct: purchased Thermo Fisher Scientific SelectScreen (plus Nanosyn / Reaction Biology for CDK/cyclin lines)
Excerpt: as §1

EGFR (ErbB1) G719S = molecular target: T35, EGFR (ErbB1) G719S (Homo sapiens, UniProt P00533, G719S)
T35 construct: purchased Thermo Fisher Scientific SelectScreen (plus Nanosyn / Reaction Biology for CDK/cyclin lines)
T35 sequence (P00533 25-1210 G719S): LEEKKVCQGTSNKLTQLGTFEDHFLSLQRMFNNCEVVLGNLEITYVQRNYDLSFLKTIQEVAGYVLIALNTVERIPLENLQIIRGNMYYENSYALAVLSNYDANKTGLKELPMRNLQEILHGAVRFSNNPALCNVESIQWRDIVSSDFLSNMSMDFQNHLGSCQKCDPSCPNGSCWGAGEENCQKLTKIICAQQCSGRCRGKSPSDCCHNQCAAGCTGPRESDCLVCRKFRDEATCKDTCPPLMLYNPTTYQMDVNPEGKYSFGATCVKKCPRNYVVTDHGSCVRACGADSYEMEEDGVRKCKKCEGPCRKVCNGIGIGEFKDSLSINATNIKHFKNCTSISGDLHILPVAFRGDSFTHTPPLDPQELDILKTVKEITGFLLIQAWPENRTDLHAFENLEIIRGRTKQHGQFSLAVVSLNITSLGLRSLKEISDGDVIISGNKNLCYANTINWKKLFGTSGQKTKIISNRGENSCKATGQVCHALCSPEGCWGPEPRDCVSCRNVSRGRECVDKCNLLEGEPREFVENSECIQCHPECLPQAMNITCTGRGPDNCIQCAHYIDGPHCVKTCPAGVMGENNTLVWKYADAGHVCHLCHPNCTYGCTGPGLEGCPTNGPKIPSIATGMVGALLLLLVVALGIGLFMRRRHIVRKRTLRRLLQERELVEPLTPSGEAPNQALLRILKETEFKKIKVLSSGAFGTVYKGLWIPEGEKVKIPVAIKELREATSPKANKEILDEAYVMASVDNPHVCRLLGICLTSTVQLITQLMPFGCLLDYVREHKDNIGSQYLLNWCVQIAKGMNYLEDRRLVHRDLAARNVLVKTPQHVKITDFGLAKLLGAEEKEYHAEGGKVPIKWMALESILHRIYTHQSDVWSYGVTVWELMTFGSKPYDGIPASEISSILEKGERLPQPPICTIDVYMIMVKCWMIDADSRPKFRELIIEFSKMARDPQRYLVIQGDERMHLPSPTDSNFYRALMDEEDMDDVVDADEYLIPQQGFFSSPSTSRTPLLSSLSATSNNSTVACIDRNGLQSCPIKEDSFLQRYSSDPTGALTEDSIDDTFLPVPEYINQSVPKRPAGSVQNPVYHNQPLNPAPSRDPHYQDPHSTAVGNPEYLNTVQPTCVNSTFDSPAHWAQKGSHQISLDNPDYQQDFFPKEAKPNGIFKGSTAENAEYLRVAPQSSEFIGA
Excerpt: as §1

EPHB4 = molecular target: T36, EPHB4 (Homo sapiens, UniProt P54760)
T36 construct: purchased Thermo Fisher Scientific SelectScreen (plus Nanosyn / Reaction Biology for CDK/cyclin lines)
Excerpt: as §1

CSNK1G3 (CK1 gamma 3) = molecular target: T37, CSNK1G3 (CK1 gamma 3) (Homo sapiens, UniProt Q9Y6M4)
T37 construct: purchased Thermo Fisher Scientific SelectScreen (plus Nanosyn / Reaction Biology for CDK/cyclin lines)
Excerpt: as §1

NS(=O)(=O)c1ccc(Nc2ncc3cc4n(c3n2)C2(CCCCC2)C(=O)NN4)cc1 [INX-315]
inhibition at 0.1 µM (AXL): 17%
inhibition at 0.1 µM (PAK7 (KIAA1264)): 1%
inhibition at 0.1 µM (PAK4): 7%
inhibition at 0.1 µM (AURKC (Aurora C)): 53%
inhibition at 0.1 µM (JAK2): 49%
inhibition at 0.1 µM (CSNK1G2 (CK1 gamma 2)): 3%
inhibition at 0.1 µM (BRAF V599E): 7%
inhibition at 0.1 µM (MINK1): 15%
inhibition at 0.1 µM (EGFR (ErbB1) T790M): 5%
inhibition at 0.1 µM (FRAP1 (mTOR)): 0%
inhibition at 0.1 µM (YES1): 16%
inhibition at 0.1 µM (CLK3): -1%
inhibition at 0.1 µM (EGFR (ErbB1)): 4%
inhibition at 0.1 µM (FGFR3): -3%
inhibition at 0.1 µM (FGFR2 N549H): 16%
inhibition at 0.1 µM (SRPK1): 7%
inhibition at 0.1 µM (FLT4 (VEGFR3)): 53%
inhibition at 0.1 µM (EPHA1): 22%
inhibition at 0.1 µM (EPHA4): 5%
inhibition at 0.1 µM (BRAF): 11%
inhibition at 0.1 µM (ROCK2): 6%
inhibition at 0.1 µM (TEK (Tie2)): -1%
inhibition at 0.1 µM (INSRR (IRR)): 3%
inhibition at 0.1 µM (EGFR (ErbB1) T790M L858R): 0%
inhibition at 0.1 µM (PRKCQ (PKC theta)): 8%
inhibition at 0.1 µM (DAPK3 (ZIPK)): 6%
inhibition at 0.1 µM (RPS6KB2 (p70S6Kb)): 4%
inhibition at 0.1 µM (PDGFRA (PDGFR alpha)): 21%
inhibition at 0.1 µM (AKT2 (PKB beta)): 1%
inhibition at 0.1 µM (NTRK3 (TRKC)): 84%
inhibition at 0.1 µM (GSK3B (GSK3 beta)): 17%
inhibition at 0.1 µM (EGFR (ErbB1) G719C): 0%
inhibition at 0.1 µM (RPS6KA2 (RSK3)): 24%
inhibition at 0.1 µM (CHEK2 (CHK2)): 7%
inhibition at 0.1 µM (EGFR (ErbB1) G719S): 4%
inhibition at 0.1 µM (EPHB4): 6%
inhibition at 0.1 µM (CSNK1G3 (CK1 gamma 3)): -1%
